Active and inactive are the calls of the source.
Columns and labels:
[1] = molecular target: ADP-ribosylation factor GTPase-activating protein 1 (Rattus norvegicus, UniProt Q62848); assay: Fluorescence polarization-based biochemical high throughput dose response screening assay to identify inhibitors of ADP-ribosylation factor GTPase activating protein 1 (ARFGAP1).; assay type: functional
[2] = molecular target: T1, Carboxy-terminal domain RNA polymerase II polypeptide A small phosphatase 1 (Homo sapiens, UniProt Q9GZU7); assay: inhibitors of CTDSP1, concentration-response testing, biochemical assay, absorbance-based, actives from ultra-high-throughput screening (AID 540297); assay type: functional
T1 sequence (Q9GZU7 whole entry): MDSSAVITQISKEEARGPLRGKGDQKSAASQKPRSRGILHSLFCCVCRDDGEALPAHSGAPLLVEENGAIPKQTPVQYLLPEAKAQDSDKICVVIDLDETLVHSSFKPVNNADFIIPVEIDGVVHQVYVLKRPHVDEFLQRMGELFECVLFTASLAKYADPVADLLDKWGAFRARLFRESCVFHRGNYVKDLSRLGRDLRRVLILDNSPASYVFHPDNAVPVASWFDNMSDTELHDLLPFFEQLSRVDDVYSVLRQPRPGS

[3] = molecular target: T2, Small ubiquitin-related modifier 1 (Homo sapiens, UniProt P63165); assay: inhibitors of SUMO1 partner interactions, dose response, biochemical, FRET (AID 624383); assay type: functional; conditions: read-out: IC50_Mean
T2 sequence (P63165 whole entry): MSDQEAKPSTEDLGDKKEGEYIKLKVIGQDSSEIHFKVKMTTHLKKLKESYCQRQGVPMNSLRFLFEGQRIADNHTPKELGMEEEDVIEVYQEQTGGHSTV

[4] = molecular target: T2, Small ubiquitin-related modifier 1; assay: inhibitors of SUMO1 peptide binding, dose response, biochemical, fluorescence polarization, uHTS hits (AID 624382); assay type: functional; conditions: read-out: IC50_Mean
Interleukin-8 = Interleukin-8 (Homo sapiens, UniProt P10145); assay: Dose Response confirmation of uHTS small molecule hits for cystic fibrosis induced NFkb Inhibitors in a PAF-induced IL8 counterscreen.; assay type: functional; conditions: read-out: IC50_Mean
Sequence of Interleukin-8 (P10145 whole entry): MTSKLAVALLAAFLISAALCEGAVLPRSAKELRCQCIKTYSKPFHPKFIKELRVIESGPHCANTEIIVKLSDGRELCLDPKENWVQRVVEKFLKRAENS

[5] = molecular target: Dual specificity protein kinase CLK1 (Homo sapiens, UniProt P49759); assay: CLK1 kinase inhibitors, off-target check, dose response, selectivity assay for Dyrk1A inhibitor project, biochemical, cherry-picked samples (AID 588811)
Sequence of Dual specificity protein kinase CLK1 (P49759 whole entry): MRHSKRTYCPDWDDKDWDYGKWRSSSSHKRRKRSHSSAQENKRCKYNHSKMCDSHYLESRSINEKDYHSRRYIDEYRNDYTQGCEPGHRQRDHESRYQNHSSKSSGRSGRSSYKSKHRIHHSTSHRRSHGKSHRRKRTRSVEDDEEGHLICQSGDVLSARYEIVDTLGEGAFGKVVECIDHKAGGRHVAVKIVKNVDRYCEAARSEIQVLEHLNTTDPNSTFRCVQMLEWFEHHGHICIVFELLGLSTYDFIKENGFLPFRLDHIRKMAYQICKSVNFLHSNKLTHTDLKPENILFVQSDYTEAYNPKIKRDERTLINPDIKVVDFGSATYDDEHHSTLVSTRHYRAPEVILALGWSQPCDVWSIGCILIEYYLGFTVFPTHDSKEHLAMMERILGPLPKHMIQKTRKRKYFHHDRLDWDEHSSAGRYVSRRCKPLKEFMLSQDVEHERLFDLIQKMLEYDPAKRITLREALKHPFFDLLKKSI

[6] = molecular target: T3, ATP-dependent translocase ABCB1 (Homo sapiens, UniProt P08183); assay: ABCG2 efflux pump inhibitor potency, dose response, Ig-MXP3 cells, JC-1, flow cytometry, set 2 (AID 504566); assay type: functional; conditions: read-out: EC50_MICROM_;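 note: flow cytometry median green fluorescence of retained JC-1 dye; potency of efflux pump inhibition measured as rising substrate retention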
T3 sequence (P08183 whole entry): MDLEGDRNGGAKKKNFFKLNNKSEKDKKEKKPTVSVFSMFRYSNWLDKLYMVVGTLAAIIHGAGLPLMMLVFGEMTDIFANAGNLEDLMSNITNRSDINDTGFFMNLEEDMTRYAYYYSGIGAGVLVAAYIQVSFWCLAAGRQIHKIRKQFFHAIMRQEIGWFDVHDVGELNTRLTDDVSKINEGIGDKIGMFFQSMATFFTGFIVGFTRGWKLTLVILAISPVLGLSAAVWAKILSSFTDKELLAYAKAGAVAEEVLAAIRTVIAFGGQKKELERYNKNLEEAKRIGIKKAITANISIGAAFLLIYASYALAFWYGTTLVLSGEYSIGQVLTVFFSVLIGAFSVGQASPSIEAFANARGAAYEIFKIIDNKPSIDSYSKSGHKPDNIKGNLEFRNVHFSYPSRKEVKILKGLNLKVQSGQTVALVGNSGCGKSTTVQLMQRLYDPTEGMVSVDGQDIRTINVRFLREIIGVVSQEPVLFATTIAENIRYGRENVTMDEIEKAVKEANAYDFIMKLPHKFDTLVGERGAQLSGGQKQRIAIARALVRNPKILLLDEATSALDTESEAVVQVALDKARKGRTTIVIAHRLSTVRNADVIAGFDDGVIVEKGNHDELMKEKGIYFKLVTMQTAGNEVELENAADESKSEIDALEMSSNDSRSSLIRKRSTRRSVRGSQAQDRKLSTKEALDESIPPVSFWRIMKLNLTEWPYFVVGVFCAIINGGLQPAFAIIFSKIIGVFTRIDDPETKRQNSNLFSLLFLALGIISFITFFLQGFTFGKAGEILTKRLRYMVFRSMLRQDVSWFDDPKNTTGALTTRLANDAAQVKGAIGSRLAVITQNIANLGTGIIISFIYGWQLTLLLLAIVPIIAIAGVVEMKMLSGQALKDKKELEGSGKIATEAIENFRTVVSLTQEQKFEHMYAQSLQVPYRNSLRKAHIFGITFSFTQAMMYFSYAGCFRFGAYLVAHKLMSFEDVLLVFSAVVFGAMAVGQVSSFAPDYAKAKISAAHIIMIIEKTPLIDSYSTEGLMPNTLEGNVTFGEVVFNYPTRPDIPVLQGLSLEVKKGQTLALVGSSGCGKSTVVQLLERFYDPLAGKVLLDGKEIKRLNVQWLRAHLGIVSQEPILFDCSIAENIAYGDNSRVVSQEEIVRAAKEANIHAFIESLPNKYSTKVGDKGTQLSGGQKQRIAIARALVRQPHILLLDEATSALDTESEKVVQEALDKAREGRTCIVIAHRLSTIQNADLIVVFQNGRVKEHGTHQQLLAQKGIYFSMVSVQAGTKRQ

[7] = molecular target: T3, ATP-dependent translocase ABCB1; assay: ABCB1 efflux inhibitor potency, dose response, Jurkat-DNR cells, JC-1, flow cytometry, set 2 (AID 504569); assay type: functional; conditions: read-out: EC50_MICROM_;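 note: potency of pump inhibitors that raise cellular JC-1 green fluorescence up to the nicardipine level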
[8] = molecular target: Cyclin-dependent kinase 8 (Homo sapiens, UniProt P49336); assay: Navigating the Kinome. Panel member name: CDK8; assay type: functional
Sequence of Cyclin-dependent kinase 8 (P49336 whole entry): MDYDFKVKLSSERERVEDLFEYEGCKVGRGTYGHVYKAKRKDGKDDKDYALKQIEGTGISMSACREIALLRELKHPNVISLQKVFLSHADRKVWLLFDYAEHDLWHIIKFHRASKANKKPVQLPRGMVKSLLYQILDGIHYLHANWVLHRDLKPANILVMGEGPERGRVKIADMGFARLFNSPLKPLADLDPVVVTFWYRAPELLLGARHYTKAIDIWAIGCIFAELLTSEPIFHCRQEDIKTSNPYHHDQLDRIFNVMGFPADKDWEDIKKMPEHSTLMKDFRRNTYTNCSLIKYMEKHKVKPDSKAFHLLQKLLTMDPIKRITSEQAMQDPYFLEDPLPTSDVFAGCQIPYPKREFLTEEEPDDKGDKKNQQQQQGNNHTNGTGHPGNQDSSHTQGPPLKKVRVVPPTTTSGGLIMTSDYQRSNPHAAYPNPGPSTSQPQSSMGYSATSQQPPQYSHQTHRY

[9] = molecular target: Cyclin-dependent kinase 7 (Homo sapiens, UniProt P50613); assay type: functional;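 note: value comes from a kinome-wide kinase profiling panel in which CDK7 is one member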
Sequence of Cyclin-dependent kinase 7 (P50613 whole entry): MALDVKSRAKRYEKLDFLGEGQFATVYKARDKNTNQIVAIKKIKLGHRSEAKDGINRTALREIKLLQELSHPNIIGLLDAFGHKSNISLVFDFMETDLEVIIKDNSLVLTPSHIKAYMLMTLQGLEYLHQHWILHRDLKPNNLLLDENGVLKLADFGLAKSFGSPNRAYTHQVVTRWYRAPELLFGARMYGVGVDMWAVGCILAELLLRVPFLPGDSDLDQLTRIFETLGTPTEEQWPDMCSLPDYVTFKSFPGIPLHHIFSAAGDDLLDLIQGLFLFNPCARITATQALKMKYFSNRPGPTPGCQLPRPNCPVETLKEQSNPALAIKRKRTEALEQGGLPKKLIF

[10] = molecular target: Cyclin-dependent kinase 9 (Homo sapiens, UniProt P50750); assay type: functional;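 note: value from the CDK9 entry of a kinome-spanning kinase panel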
Sequence of Cyclin-dependent kinase 9 (P50750 whole entry): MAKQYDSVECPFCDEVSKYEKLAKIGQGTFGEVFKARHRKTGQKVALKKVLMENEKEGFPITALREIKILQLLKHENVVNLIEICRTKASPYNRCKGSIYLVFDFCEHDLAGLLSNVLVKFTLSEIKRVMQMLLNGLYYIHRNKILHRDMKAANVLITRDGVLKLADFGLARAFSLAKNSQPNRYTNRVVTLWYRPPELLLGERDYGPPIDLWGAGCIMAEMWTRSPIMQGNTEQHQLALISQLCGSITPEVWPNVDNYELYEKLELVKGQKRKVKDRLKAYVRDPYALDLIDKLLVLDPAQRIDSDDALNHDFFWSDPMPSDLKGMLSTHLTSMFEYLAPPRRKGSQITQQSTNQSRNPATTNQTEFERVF

Beta Lactamase [11] = molecular target: T4, Beta Lactamase (Pseudomonas aeruginosa, UniProt Q932Y6); assay: VIM-2 inhibitor FRET-based artefact check, dose response, artefact control for selective VIM-2 inhibitor project, biochemical, FRET readout, CCF2 substrate (AID 1926)
T4 sequence (Q932Y6 whole entry): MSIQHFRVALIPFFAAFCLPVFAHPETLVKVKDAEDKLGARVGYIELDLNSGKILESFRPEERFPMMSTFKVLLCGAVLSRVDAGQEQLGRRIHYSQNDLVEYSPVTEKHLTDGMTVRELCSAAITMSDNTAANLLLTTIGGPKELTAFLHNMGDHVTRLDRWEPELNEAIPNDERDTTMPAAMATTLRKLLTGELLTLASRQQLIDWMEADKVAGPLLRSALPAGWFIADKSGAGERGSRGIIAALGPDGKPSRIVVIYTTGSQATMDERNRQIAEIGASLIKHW

Beta-lactamase [12] = molecular target: Beta-lactamase (Salmonella choleraesuis (strain SC-B67), UniProt Q5J463); assay: Epi-absorbance-based counterscreen for selective VIM-2 inhibitors: dose response biochemical high throughput screening assay to identify inhibitors of TEM-1 serine-beta-lactamase.
Sequence of Beta-lactamase (Salmonella choleraesuis (strain SC-B67), UniProt Q5J463) (Q5J463 whole entry): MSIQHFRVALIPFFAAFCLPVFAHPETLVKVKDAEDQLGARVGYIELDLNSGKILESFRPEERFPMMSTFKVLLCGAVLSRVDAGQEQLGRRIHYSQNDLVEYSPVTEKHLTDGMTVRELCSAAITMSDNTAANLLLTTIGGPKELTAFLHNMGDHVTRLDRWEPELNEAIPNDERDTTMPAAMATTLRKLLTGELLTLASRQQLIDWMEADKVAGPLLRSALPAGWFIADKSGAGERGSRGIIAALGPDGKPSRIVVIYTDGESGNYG

Beta Lactamase [13] = molecular target: T4, Beta Lactamase; assay: VIM-2 metallo-beta-lactamase inhibitor potency, dose response, biochemical, epi-absorbance readout, selective inhibitors (AID 1919)
Leucine aminopeptidase = molecular target: T5, Leucine aminopeptidase (Plasmodium falciparum 3D7, UniProt Q8IL11); assay: P. falciparum M17LAP inhibitors, primary screen, biochemical, fluorogenic H-Leu-NHMec substrate, 1536-well (AID 1619); assay type: functional
T5 sequence (Q8IL11 whole entry): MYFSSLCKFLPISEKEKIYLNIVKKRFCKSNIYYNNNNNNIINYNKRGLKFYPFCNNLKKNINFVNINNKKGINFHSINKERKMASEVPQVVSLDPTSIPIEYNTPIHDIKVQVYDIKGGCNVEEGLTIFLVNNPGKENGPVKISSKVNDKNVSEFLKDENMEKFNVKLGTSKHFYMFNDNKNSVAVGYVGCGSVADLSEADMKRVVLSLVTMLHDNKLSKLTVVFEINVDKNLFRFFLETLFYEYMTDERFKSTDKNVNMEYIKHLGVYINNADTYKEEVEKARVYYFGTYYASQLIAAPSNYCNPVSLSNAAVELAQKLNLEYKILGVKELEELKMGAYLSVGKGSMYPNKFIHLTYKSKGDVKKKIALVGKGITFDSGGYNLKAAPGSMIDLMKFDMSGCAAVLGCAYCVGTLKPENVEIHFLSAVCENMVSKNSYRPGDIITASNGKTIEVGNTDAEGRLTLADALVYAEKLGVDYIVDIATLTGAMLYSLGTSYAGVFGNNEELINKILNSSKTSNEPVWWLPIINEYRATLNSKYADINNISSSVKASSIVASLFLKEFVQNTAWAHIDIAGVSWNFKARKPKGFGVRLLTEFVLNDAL

[14] = molecular target: T6, Probable nicotinate-nucleotide adenylyltransferase (Staphylococcus aureus (strain N315), UniProt P65502); assay type: functional, Staphylococcus aureus subsp. aureus N315; conditions: read-out: IC50_Mean;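 for IC50 Mean: confirmatory dose-response retesting of NadD inhibitor hits first found in an ultra-high-throughput screen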
T6 sequence (P65502 whole entry): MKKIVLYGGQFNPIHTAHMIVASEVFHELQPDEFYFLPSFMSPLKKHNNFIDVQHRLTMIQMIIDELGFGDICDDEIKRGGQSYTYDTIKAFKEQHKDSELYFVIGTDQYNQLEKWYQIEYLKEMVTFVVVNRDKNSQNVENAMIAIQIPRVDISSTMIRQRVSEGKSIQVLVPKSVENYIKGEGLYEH

[15] = molecular target: T6, Probable nicotinate-nucleotide adenylyltransferase; assay type: functional, Staphylococcus aureus subsp. aureus N315
Beta-lactamase [16] = molecular target: T7, Beta-lactamase (Pseudomonas aeruginosa, UniProt Q79MP6); assay: IMP-1 metallo-beta-lactamase inhibitors, dose response, selectivity assay for VIM-2 inhibitor project, biochemical, epi-absorbance (AID 1920)
T7 sequence (Q79MP6 whole entry): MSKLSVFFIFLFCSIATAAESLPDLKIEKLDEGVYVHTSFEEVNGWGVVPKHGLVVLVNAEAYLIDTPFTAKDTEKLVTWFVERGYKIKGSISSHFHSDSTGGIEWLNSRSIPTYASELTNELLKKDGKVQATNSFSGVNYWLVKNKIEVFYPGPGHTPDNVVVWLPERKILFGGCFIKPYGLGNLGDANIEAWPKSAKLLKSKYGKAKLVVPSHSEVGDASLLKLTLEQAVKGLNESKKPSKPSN

Beta-lactamase [17] = molecular target: T7, Beta-lactamase; assay: […] counterscreen for selective VIM-2 inhibitors: dose response biochemical high throughput screening assay to identify inhibitors of IMP-1 metallo-beta-lactamase.
[18] = molecular target: Mitogen-activated protein kinase 13 (Homo sapiens, UniProt O15264); assay type: functional
Sequence of Mitogen-activated protein kinase 13 (O15264 whole entry): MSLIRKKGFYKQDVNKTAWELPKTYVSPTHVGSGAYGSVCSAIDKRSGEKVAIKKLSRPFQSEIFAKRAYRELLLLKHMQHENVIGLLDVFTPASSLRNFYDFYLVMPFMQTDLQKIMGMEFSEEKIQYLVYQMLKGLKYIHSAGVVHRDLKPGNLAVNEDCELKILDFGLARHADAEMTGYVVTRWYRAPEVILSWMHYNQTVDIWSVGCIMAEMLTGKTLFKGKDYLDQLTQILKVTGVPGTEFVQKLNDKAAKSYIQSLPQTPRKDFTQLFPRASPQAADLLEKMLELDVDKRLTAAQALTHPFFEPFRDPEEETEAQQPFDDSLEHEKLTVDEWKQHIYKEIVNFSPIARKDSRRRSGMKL

Sequence of ADP-ribosylation factor GTPase-activating protein 1 (Q62848 whole entry, the tested form may be a part): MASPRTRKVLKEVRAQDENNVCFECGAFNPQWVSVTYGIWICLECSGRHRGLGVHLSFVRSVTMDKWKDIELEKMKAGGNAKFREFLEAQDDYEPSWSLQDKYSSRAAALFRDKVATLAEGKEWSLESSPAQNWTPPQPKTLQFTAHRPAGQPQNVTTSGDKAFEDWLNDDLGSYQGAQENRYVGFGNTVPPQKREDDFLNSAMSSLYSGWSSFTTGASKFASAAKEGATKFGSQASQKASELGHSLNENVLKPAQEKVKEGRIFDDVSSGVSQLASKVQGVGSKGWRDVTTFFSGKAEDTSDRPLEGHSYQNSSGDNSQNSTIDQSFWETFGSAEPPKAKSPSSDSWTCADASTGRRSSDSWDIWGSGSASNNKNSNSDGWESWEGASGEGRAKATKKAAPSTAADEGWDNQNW

## O=C(Nc1nnc(-c2ccc3c(c2)OCCO3)o1)c1ccc(Cc2ccccc2)cc1
[1]
  IC50: 7.92 µM (active)

## CC(Cc1c[nH]c2ccccc12)C(=O)NCc1ccco1 (stereo not given)
[2]
  IC50: 19.4 µM (active)
[3]
  IC50: 12.2 µM (active)
[4]
  IC50: > 66.6 µM (inactive)

## c1ccc2c(-c3cncc4ccccc34)cncc2c1
Interleukin-8
  IC50: 16 µM (inactive)

## Clc1ccc(Nc2nccc(-c3ccc4c(c3)OCO4)n2)cc1
[5]
  AC50: 15.8 µM (active)

## O=C(c1ccco1)N1CCN(c2c3c(nc4cc(-c5cccc(F)c5)nn24)CCCC3)CC1
[6]
  EC50: 1.79 µM (active)
[7]
  EC50: 4.41 µM (active)

## OCC1OC(n2cnc3cc(Cl)c(Cl)cc32)C(O)C1O (stereo not given)
[8]
  Ki: 2 µM (active)
[9]
  Ki: 2.51 µM (active)
[10]
  Ki: 0.126 µM (active)

## O=C(O)c1cccc(NC(=S)N/N=C/c2ccccc2OCc2ccc(Br)cc2)c1
Beta Lactamase [11]
  IC50: 0.885 µM (active)
Beta-lactamase [12]
  IC50: > 59.6 µM (inactive)
Beta Lactamase [13]
  IC50: 10 µM (inactive)
Leucine aminopeptidase
  IC50: 13.3 µM (active)
[14]
  IC50: 15.4 µM (active)
[15]
  IC50: 3.73 µM (active)
Beta-lactamase [16]
  IC50: > 59.6 µM (inactive)
Beta-lactamase [17]
  IC50: > 59.6 µM (inactive)

## CNCc1ccc(-c2[nH]c3cc(F)cc4c3c2CCNC4=O)cc1 [RUCAPARIB]
[18]
  Ki: > 7.94 µM (inactive)
